Test results as given in patent US20240398694A1, “SKINCARE COMPOSITION CONTAINING SHATAVARI EXTRACT” (Bangkok Lab and Cosmetic Public Company Limited, priority 2023, published 2024).
Several values for one entry are separate records, joined by “and”; a condition that tells them apart may be missing. Equal values may be shown once. Read-outs that look alike come from different tables or passages of the source.

Columns and labels:
[1] = Free-radical DPPH binding study
Text: From the free-radical DPPH binding study, Shatavari extract has an SC50 of 5.92+0.03 milligrams per milliliter. […] Also, the free-radical DPPH binding activity of non-diluted Shatavari extract is 91.15+0.97%.
(§1) These are used in free-radical binding studies by the DPPH method and in free-radical nitric oxide binding using Griess reagent.

[2] = Free-radical nitric oxide binding using Griess reagent; settings: triplicate
Text: as §1

[3] = applying 10% vitamin C; cited from earlier work
[4] = test system: prostate cancer cells DU-145; settings: human
Text: (§2) Prostate cancer cells are the representatives of the study of 5α-reductase inhibition activity due to the production of 5α-reductase in prostate cancer cells.

5α-reductase = 5α-reductase inhibition activity in prostate cancer cells DU-145; type: cell-based, human; settings: FIG. 5, lanes 3 and 4 vs control lane 2
Text: as §2

breast cancer cells MCF7 = assay: Estrogen hormone stimulation activity: % survival of breast cancer cells MCF7; type: cell-based, human
Text: Breast cancer cells are the representatives of the study of estrogen receptor stimulation activity because breast cancer cells are responsible for estrogen hormone.

O=C1O[C@H]([C@@H](O)CO)C(O)=C1O [vitamin C, L-ascorbic acid]
SC50 (IC50) of free-radical DPPH binding [1]: 0.02 ± 0.01 milligrams per milliliter
IC50 of free-radical nitric oxide binding [2]: 0.84 ± 0.02 milligrams per milliliter
reduction of sunburn [3]: 40-60%
reduction of the skin's redness from UVB exposure [3]: 52%

CC(C)(C)NC(=O)[C@H]1CC[C@H]2[C@@H]3CC[C@H]4NC(=O)C=C[C@]4(C)[C@H]3CC[C@]12C [finasteride]
highest concentration non-cytotoxic to prostate cancer cells DU-145 [4]: 10 micrograms per milliliter
% Survival of prostate cancer cells DU-145 (means ± S.D.) ([4]; 0.01 μg/mL): 100.19%
% Survival of prostate cancer cells DU-145 (means ± S.D.) ([4]; 0.1 μg/mL): 99.75%
% Survival of prostate cancer cells DU-145 (means ± S.D.) ([4]; 1 μg/mL): 94.89%
% Survival of prostate cancer cells DU-145 (means ± S.D.) ([4]; 100 μg/mL): 0%
agarose gel band of 5α-reductase DNA (700-bp fragment) from treated DU-145 cells (5α-reductase): faded

C[C@]12CC[C@@H]3c4ccc(O)cc4CC[C@H]3[C@@H]1CC[C@@H]2O [β-estradiol]
% survival of breast cancer cells MCF7 (means ± S.D.) (breast cancer cells MCF7; concentration 0.1 μg/mL): 92.14%
% survival of breast cancer cells MCF7 (means ± S.D.) (breast cancer cells MCF7; concentration 1 μg/mL): 101.82%
% survival of breast cancer cells MCF7 (means ± S.D.) (breast cancer cells MCF7; concentration 10 μg/mL): 98.84%
% survival of breast cancer cells MCF7 (means ± S.D.) (breast cancer cells MCF7; concentration 100 μg/mL): 96.53%
% survival of breast cancer cells MCF7 (means ± S.D.) (breast cancer cells MCF7; concentration 1,000 μg/mL): 107.2% and 107.20 ± 5.37%
